Structures are written as SMILES.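 1) Cells in 96-well plates. 2) Compound, 48 h, 5 concentrations. 3) Linear interpolation between surrounding doses. 4) Unreached endpoint = highest concentration. The concentration for full growth arrest is given as TGI.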

Assay in all cases: growth of human tumour cells (NCI), 48 h
Assay [1] deals with EKVX NSCLC.
The subject of assay [2] is RXF 393 renal.
Assay [3] has as its system BT-549 breast.
Assay [4] deals with UO-31 renal.
Assay [5] deals with SNB-19 CNS.
In assay [6] the test system is HT29 colon.
Assay [7] has as its system HOP-92 NSCLC.
The subject of assay [8] is NCI-H23 lung.
Assay [9] has as its system NCI-H522 lung.
In assay [10] the test system is CAKI-1 renal.
The test system of assay [11] is A549 NSCLC.
The test system of assay [12] is LOX IMVI melanoma.
In assay [13] the test system is RPMI-8226 leukemia.
For assay [14], the system named is HCT-116 colon.
For assay [15], the system named is M14 melanoma.
Assay [16] has as its system T-47D breast.

For the compound `CC(C)(C)OC(=O)NC(Cc1ccc(OCc2ccccc2)cn1)C(N)=O` (stereo not drawn), the TGI in assay [1], in assay [2], in assay [3], in assay [4], in [5] and in assay [6] was over 100 µM each time. Further, the TGI in assay [7], in assay [8], in assay [9], in [10], in [11] and in assay [12] was over 100 µM in each case. Moreover, the TGI in [13] and in assay [14] was over 100 µM throughout.
On to `COc1cccc(N2C(=O)C3c4[nH]c5ccc(C)cc5c4C4CCC(C)CC4C3C2=O)c1` (stereo not drawn), for which the TGI in [1] is over 100 µM; in assay [2], 47.3 µM; in assay [3] it was over 100 µM; in assay [4], over 100 µM; in [5] it was over 100 µM; in assay [6] it was over 100 µM. Also, the TGI in [7], in assay [8], in [10], in assay [11], in [12] and in [15] was over 100 µM each time. In addition, the TGI in assay [13] and in [14] was over 100 µM each time.
For the compound `O=[N+]([O-])c1cc2ccc1OCc1cccc(n1)COc1ccc(cc1[N+](=O)[O-])C=NCCCCCCCCN=C2`, the TGI in assay [1], in [3], in assay [4], in assay [5], in assay [6] and in assay [7] was over 100 µM each time. In addition, the TGI in assay [8], in assay [9], in [10], in assay [11], in [12] and in [15] was over 100 µM each time. The TGI in assay [13] and in assay [14] was over 100 µM each time.
For `CNC(=O)OCc1nc(N=[N+]=[N-])n(C)c1COC(=O)NC`, the TGI in assay [1] is over 100 µM; in assay [2] it was 54.5 µM; in assay [3] it was over 10 µM; in [4], over 10 µM; in assay [6], over 100 µM; in assay [7] it was 86.7 µM. In addition, the TGI was over 100 µM in [8]; 40.7 µM in assay [9]; 61 µM in [10]; over 100 µM in assay [11]; over 100 µM in assay [12]; over 100 µM in assay [13]. Further, the TGI in assay [14] is over 100 µM.
For `[O-]/[N+](=N/c1ncc(-c2ccccc2)cn1)c1ncc(-c2ccccc2)cn1`, the TGI in assay [1], in assay [16], in assay [2], in assay [4], in assay [5] and in assay [6] was over 100 µM throughout. Moreover, the TGI in assay [7] is over 100 µM; in [8] it was over 100 µM; in assay [9] it was 32.3 µM; in [10], over 100 µM; in assay [11] it was over 100 µM; in assay [12], over 100 µM. For the same compound, the TGI in assay [15], in assay [13] and in [14] was over 100 µM throughout.
On to `O=c1[nH]c2cc3[nH]c(=O)c(=O)[nH]c3cc2[nH]c1=O`, for which the TGI in [1], in [2], in [3], in assay [4], in [5] and in assay [6] was over 100 µM throughout. Also, the TGI in assay [8], in assay [9], in assay [10], in [11], in assay [12] and in [15] was over 100 µM in each case. Besides, the TGI in assay [13] and in assay [14] was over 100 µM throughout.
On to `CN1C(=O)C(C#N)C2C[C@@]1(C)Oc1ccccc12` (stereo partly drawn), for which the TGI in assay [1], in [2], in [3], in [4], in [5] and in assay [6] was over 100 µM throughout. Further, the TGI in assay [7], in assay [8], in assay [9], in [10], in [11] and in [12] was over 100 µM in each case. Also, the TGI in assay [15], in assay [13] and in assay [14] was over 100 µM throughout.
With `Cn1nc(S(N)(=O)=O)s/c1=N/S(=O)(=O)c1ccc(N)cc1`, the TGI in assay [1], in [2], in assay [3], in [4], in [5] and in assay [6] was over 100 µM throughout. Further, the TGI in assay [7], in [8], in [10], in assay [11], in [15] and in assay [13] was over 100 µM each time.
With `O=C(CSc1nc2ccc(I)cc2c(=O)n1Cc1ccccc1)NN1C(=O)CSC1c1ccccc1` (stereo not drawn), the TGI in [1] is 86.2 µM; in assay [16], 92.5 µM; in [2] it was 57.4 µM; in assay [5], over 100 µM; in [6] it was over 100 µM; in [7], 46.9 µM. The TGI was 43.2 µM in [8]; 35.5 µM in assay [9]; 10.9 µM in assay [10]; over 100 µM in assay [11]; 39.1 µM in assay [12]; 84.4 µM in assay [15]. Further, the values for the TGI in assay [13] and in assay [14] were over 100 µM and 56.1 µM, respectively.
With `CC1CN=C(NS(=O)(=O)c2cc(C(=O)Nc3ccccc3)c(Cl)cc2S)NN1` (stereo not drawn), the TGI in assay [1], in assay [3], in assay [4], in [5], in [6] and in assay [8] was over 100 µM throughout. The TGI in [9] was 76.1 µM; in assay [10], over 100 µM; in [11], over 100 µM; in [12], over 100 µM; in [15], over 100 µM; in [13], over 100 µM. Besides, in assay [14], the TGI is over 100 µM.
Consider `CC(=O)c1c2c(cc3c1CC1(C3)Cc3cc4c(c(C(C)=O)c3C1)CCCC4)CCCC2`, for which the TGI in [1] was over 100 µM; in assay [16], over 100 µM; in [2], over 100 µM; in assay [4], 0.314 µM; in [6], over 100 µM; in [7] it was over 100 µM. Besides, the TGI in assay [8], in [9], in assay [11], in assay [12], in assay [15] and in assay [13] was over 100 µM each time. The compound further yielded a TGI in assay [14] of over 100 µM.
Take `CC(C)(C)OC(=O)NC(Cc1ccc(OCc2ccccc2)cn1)C(=O)O` (stereo not drawn): the TGI in [1], in assay [2], in assay [3], in assay [4], in [5] and in assay [6] was over 100 µM throughout. Also, the TGI in assay [7], in assay [8], in [9], in assay [10], in assay [11] and in assay [12] was over 100 µM throughout. In addition, the TGI in assay [13] and in assay [14] was over 100 µM throughout.
On to `Cc1ccccc1C1CC(=O)CC(c2ccccc2C)C12C(=O)NC(=S)NC2=O` (stereo not drawn), for which the TGI in assay [1] was over 100 µM; in assay [16] it was over 100 µM; in assay [2] it was 38.8 µM; in assay [4], 43.2 µM; in assay [5], over 100 µM; in assay [6], 54.3 µM. The TGI is over 100 µM in assay [7]; over 100 µM in [8]; over 100 µM in assay [10]; over 100 µM in assay [11]; 35.8 µM in [12]; 91.8 µM in assay [15]. In addition, the figures for the TGI in assay [13] and in assay [14] were 38.6 µM and 49 µM, respectively.
Consider `CC1(C)N([O-])[N+](=O)C1(Br)c1ccccc1` (stereo not drawn), for which the TGI in assay [1], in [16], in assay [2], in assay [4], in [5] and in [6] was over 100 µM throughout. The TGI in assay [7], in assay [8], in assay [10], in [11], in [12] and in assay [15] was over 100 µM each time. For the same compound, the TGI in assay [13] and in [14] was over 100 µM each time.
Consider `C=CC[C@@]12CCC(=O)C=C1CCCC2=O`, for which the TGI in assay [1], in assay [16], in assay [2], in assay [4], in assay [5] and in assay [6] was over 100 µM in each case. The TGI in assay [7], in assay [8], in assay [9], in assay [10], in assay [11] and in [12] was over 100 µM in each case. Further, the TGI in [15], in [13] and in assay [14] was over 100 µM in each case.

Source of the values: PubChem BioAssay (NCI).
